Key:
[1] = target: Vascular endothelial growth factor receptor 2 (Homo sapiens, UniProt P35968); assay: Inhibition of human cytoplasmic VEGFR2 expressed in baculovirus after 15 mins by time resolved fluorescence assay
Rattus norvegicus [2] = assay: (§1) Oral bioavailability in rat at 5 mg/kg; format: ADME, organism-based; conditions: in vivo
Rattus norvegicus [3] = assay: (§2) AUC in rat at 1 mg/kg, iv; format: ADME, organism-based, Plasma; design: dose 1 mg/kg, route intravenous; conditions: in vivo
Rattus norvegicus [4] = assay: (§3) AUC in rat at 5 mg/kg, po; format: ADME, organism-based, Plasma; design: dose 5 mg/kg, route oral; conditions: in vivo
[5] = Half life in rat at 1 mg/kg, iv; format: ADME, organism-based; design: dose 1 mg/kg, route intravenous; conditions: in vivo
[6] = Half life in rat at 5 mg/kg, po; format: ADME, organism-based; design: dose 5 mg/kg, route oral; conditions: in vivo
[7] = Volume of distribution in rat at 1 mg/kg, iv; format: ADME, organism-based; design: dose 1 mg/kg, route intravenous; conditions: in vivo, read-out: Vdss
[8] = Clearance in rat at 1 mg/kg, iv; format: ADME, organism-based; design: dose 1 mg/kg, route intravenous; conditions: in vivo
[9] = Cmax in rat at 5 mg/kg, po; format: ADME, organism-based; design: dose 5 mg/kg, route oral; conditions: in vivo
[10] = as §2; format: ADME, organism-based, Plasma; design: dose 1 mg/kg, route intravenous; conditions: plasma
[11] = target: Vascular endothelial growth factor receptor 1 (Homo sapiens, UniProt P17948); assay: Inhibition of VEGFR1
[12] = target: Vascular endothelial growth factor receptor 3 (Homo sapiens, UniProt P35916); assay: Inhibition of VEGFR3
[13] = target: Proto-oncogene tyrosine-protein kinase Src (Homo sapiens, UniProt P12931); assay: Inhibition of SRC
Angiopoietin-1 receptor = Angiopoietin-1 receptor (Homo sapiens, UniProt Q02763); assay: Inhibition of Tie2
[14] = target: High affinity nerve growth factor receptor (Homo sapiens, UniProt P04629); assay: Inhibition of TRK A
[15] = as §1; format: ADME, organism-based; conditions: in vivo
[16] = as §3; format: ADME, organism-based, Plasma; design: dose 5 mg/kg, route oral; conditions: plasma

Sequence of Vascular endothelial growth factor receptor 2 (P35968 whole entry): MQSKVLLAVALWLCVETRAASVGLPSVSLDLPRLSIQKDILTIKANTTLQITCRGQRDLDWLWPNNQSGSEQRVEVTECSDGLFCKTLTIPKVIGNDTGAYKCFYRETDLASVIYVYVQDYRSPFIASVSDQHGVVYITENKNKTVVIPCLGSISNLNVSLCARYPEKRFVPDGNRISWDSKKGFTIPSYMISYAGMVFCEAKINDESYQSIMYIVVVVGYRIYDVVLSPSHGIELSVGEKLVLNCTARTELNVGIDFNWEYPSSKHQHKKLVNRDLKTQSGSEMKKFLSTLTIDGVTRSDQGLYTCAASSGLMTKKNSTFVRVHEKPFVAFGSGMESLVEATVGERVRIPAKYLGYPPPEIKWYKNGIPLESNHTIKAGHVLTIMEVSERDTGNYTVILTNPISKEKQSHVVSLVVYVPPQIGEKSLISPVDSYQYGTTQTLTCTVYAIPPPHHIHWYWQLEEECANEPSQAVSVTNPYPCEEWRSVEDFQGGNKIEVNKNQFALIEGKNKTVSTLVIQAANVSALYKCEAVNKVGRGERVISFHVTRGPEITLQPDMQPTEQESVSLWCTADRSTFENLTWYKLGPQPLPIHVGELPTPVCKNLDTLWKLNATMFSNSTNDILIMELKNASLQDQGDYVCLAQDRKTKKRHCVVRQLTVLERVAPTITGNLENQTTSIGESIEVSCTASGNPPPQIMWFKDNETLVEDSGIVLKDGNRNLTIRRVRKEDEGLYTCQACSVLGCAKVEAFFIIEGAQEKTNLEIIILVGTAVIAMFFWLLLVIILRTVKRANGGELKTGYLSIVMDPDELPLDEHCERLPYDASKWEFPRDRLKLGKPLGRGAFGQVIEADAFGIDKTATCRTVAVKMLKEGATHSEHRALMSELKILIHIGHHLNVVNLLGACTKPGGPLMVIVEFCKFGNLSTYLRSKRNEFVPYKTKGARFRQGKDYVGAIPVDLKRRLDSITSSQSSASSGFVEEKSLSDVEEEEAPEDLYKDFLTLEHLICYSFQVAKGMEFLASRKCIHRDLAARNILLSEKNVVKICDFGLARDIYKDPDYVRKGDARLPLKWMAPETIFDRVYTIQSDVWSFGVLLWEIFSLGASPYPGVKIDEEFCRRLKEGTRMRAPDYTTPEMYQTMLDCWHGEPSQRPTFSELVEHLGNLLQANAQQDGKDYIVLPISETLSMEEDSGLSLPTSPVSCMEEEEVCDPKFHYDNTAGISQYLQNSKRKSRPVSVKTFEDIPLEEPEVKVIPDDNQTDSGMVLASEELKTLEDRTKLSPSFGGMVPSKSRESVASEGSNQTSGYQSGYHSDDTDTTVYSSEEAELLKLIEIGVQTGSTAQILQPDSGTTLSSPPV
Sequence of Vascular endothelial growth factor receptor 3 (P35916 whole entry): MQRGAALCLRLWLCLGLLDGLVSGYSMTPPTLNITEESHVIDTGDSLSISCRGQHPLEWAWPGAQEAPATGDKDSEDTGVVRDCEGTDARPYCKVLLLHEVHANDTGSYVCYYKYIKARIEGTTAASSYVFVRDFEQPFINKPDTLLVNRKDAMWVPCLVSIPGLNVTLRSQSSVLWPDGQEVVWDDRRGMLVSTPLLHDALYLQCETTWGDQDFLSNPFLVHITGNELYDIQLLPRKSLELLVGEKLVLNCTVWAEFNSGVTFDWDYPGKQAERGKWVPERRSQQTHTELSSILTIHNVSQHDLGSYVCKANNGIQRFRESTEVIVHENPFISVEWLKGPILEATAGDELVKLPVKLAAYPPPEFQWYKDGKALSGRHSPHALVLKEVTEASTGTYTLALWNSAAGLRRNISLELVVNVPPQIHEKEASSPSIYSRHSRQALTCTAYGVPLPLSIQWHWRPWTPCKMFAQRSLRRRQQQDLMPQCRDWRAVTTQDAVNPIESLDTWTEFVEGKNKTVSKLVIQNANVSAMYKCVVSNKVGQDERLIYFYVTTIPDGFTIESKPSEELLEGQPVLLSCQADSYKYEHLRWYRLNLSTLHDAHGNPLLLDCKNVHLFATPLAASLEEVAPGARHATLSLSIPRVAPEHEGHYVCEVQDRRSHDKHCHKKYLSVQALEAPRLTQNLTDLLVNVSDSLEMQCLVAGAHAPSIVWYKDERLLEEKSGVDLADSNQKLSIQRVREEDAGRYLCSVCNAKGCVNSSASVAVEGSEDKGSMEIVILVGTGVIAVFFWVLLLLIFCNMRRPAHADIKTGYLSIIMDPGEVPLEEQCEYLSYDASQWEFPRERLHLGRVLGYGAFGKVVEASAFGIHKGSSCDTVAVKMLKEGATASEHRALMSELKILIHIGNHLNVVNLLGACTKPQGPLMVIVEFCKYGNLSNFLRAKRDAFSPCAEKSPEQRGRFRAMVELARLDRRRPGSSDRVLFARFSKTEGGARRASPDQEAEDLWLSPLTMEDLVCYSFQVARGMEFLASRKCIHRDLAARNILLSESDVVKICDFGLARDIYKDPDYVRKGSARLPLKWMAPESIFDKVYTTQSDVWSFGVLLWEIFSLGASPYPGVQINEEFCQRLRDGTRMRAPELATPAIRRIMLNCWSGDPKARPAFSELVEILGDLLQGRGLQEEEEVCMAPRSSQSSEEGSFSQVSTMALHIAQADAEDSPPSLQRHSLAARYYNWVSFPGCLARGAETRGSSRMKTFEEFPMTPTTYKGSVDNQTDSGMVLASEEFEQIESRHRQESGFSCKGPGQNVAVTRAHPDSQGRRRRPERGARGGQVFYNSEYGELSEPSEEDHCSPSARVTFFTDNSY
Sequence of Angiopoietin-1 receptor (Q02763 whole entry): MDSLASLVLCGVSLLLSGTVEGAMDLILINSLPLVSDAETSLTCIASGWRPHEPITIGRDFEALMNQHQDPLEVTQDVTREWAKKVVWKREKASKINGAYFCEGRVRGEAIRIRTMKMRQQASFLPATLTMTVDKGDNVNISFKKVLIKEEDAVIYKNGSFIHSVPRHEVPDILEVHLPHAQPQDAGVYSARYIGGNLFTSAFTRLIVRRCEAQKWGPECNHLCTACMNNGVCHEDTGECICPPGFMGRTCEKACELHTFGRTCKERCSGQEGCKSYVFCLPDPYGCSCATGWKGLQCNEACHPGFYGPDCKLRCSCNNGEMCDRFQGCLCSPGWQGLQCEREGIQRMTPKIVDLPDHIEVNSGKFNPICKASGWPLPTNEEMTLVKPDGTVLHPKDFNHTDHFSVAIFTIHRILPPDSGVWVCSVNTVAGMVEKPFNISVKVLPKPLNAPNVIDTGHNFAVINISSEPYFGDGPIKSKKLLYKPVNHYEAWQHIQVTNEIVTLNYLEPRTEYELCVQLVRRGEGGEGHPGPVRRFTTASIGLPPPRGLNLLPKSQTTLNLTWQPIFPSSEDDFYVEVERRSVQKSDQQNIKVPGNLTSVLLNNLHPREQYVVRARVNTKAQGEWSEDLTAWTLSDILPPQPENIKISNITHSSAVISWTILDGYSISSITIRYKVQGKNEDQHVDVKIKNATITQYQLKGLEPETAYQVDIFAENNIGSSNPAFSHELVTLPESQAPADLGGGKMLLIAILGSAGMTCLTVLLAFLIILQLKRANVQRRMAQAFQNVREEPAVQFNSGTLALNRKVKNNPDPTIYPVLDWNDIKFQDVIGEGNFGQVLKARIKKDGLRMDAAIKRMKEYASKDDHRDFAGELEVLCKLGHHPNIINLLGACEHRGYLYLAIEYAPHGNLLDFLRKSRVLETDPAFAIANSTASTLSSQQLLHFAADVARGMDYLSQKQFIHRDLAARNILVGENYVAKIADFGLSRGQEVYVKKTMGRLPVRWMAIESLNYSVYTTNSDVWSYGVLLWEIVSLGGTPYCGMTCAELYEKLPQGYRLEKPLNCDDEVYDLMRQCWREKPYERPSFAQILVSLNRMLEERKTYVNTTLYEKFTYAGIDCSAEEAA
Sequence of Proto-oncogene tyrosine-protein kinase Src (P12931 2-536 limits assumed): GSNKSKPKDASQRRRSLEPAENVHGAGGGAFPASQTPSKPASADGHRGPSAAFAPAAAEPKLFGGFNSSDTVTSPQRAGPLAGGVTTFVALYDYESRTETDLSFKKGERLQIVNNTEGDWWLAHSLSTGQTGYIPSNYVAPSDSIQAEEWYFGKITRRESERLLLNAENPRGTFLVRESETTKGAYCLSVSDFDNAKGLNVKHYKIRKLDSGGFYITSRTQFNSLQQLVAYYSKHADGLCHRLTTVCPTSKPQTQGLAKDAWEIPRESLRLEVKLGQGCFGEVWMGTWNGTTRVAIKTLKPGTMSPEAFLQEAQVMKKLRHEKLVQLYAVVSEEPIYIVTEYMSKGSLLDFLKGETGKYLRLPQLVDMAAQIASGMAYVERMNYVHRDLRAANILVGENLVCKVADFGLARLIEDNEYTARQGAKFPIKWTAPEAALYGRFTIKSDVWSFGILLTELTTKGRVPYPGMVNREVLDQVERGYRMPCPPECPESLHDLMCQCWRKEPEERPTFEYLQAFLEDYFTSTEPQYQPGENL

Row | SMILES | IC50 [1] [nM] | half-life [5] [min] | Vd [7] [L/kg] | clearance [8] [mL/min/kg] | AUC [10] [ng·h/mL] | further results
1 | Cc1nnsc1C1=NNC(=O)/C1=C\c1c[nH]c2ccccc12 | > 1000 |  |  |  |  | 
2 | Cc1nnsc1C1=NNC(=O)/C1=C\c1cn(C)c2ccc(C#N)cc12 | > 300 |  |  |  |  | 
3 | Cc1nnsc1C1=NNC(=O)/C1=C\c1cn(C)c2ccc(F)cc12 |  | 30 | 1.1 | 25 |  | F (Rattus norvegicus [2]): 29%; AUC (Rattus norvegicus [3]): 727 ng·h/mL; AUC (Rattus norvegicus [4]): 507 ng·h/mL; half-life [6]: 84 min; Cmax [9]: 356 ng/mL
4 | Cc1nnsc1C1=NNC(=O)/C1=C\c1c[nH]c2ccc(Cl)cc12 | > 300 |  |  |  |  | 
5 | CCOc1cccc2c1c(/C=C1\C(=O)NN=C1c1snnc1C)cn2C |  | 54 | 1.1 | 15 | 1140 | IC50 [11]: > 3000 nM; IC50 [12]: 16 nM; IC50 [13]: 463 nM; IC50 (Angiopoietin-1 receptor): > 10000 nM; IC50 [14]: 36 nM
6 | Cn1cc(/C=C2\C(=O)NN=C2c2nccs2)c2c(F)cccc21 |  | 36 | 0.23 | 4.6 | 3600 | bioavailability [15]: 3%; AUC [16]: 1040 ng·h/mL; half-life [6]: 72 min; Cmax [9]: 139 ng/mL
7 | COc1cccc2c1c(/C=C1\C(=O)NN=C1c1snnc1C)cn2C |  | 18 | 2.2 | 87 | 192 | 

From ChEMBL document CHEMBL1139105, “1,2,3-Thiadiazole substituted pyrazolones as potent KDR/VEGFR-2 kinase inhibitors” (Bioorg Med Chem Lett, 2007)
